Laboratory results published in patent publication US20040197838A1, “Phosphorylated histone h2b as apoptosis marker” (priority 2001, published 2004).

Columns and labels:
HL-60 cells [1] = assay: Apoptotic DNA fragmentation (DNA ladder) after VP-16 treatment; assay type: cell-based, human
Experimental: Genomic DNA was harvested by lysing the cell pellet in 10 mM Tris pH 9.0, 1 mM EDTA, 10 mM NaCl, 1% w/v SDS, 1 mg/mL of proteinase K at 50° C. for 4-5 hours. To remove proteins, a phenol/chloroform extraction was performed and then the DNA was precipitated in 0.3 M sodium acetate and 70% Ethanol. After centrifugation, the pellet was resuspended in TE and the RNA was digested by adding 1 mg/mL Rnase A for 1 hour at room temp. DNA was separated in 1.2% agarose TAE gel.
(§1) Initially, HL-60 (human leukemia cell line) cells were treated with etoposide (VP-16) to induce apoptosis. After treatment for various length of time, histones were isolated by acid extraction and examined by Western blot using the S14P antibody. […] To confirm the induction of apoptosis, soluble DNA was extracted from parallel samples at identical time points. The appearance of a ‘DNA ladder’, indicative of apoptotic DNA fragmentation at 4 hour post treatment, coincides precisely with the onset of H2B Ser14 phosphorylation. Furthermore, an increase of H2B S14 phosphorylation was observed that correlates with the exposure time to the etoposide.

HL-60 cells [2] = assay: Western blots of histones from HL-60 cells after cytotoxic agent treatment; assay type: cell-based, human; settings: for Levels of H2B S14 Phons Induction: etoposide 20 ug/mL, anisomycin 25 ng/mL, anti-Fas 15 ng/mL
Experimental: (§2) Cell culture, drug and UV treatment, and harvesting for protein and DNA: HL-60 cells were cultured in RPMI with 10% FBS whereas 293T, HeLa, HepG2, and IMR90 were grown in DMEM with 10% FBS. Etoposide, anisomycin, […] and anti-Fas were purchased from Sigma. To induce apoptosis, drugs were used in these concentration 20 ug/mL for etoposide, 25 ng/mL anisomycin and 15 ng/mL anti-Fas. For UV induction of apoptosis, 40-100 J/m^2 was used (Biorad GS Gene Linker UV chamber). After induction of apoptosis the growth media was changed and harvested at various times afterward. Control cells were either treated with DMSO or mock-treated.
(§3) After the desired treatment, cells were subjected to any of the following: resuspension in SDS-lysis buffer (Laemmli's sample buffer), nuclear extraction, acid extraction for histones, or genomic DNA extraction. Nuclei were isolated by lysis in detergent and low speed spin as described in Strahl et al., (2001) Curr Biol 11, 996-1000. These nuclei can either be salt extracted for nuclear proteins (see below) or acid extracted in 0.4 N H2SO4. After incubating on ice for 2-4 hours, high speed centrifugation is done to remove the insoluble pellet. 5.4% of Percholic acid was added to the supernatant and the precipitated histones were resuspended in water.
(§4) Western blot analysis is performed as described in (Briggs et al., (2001) Genes Dev 15, 3286-3295) 1:1000 of α-phos (S14) H2B, 1:2500 of α-N-Mst1, 1:400 of α-myc (9E10 from Santa Cruz), 1:800 of α-PARP (UBI), 1:1000 of α-phos H2A.X (UBI), and 1:5000 of ax-Acetyl H4 primary antibodies were used. HRP-conjugated rabbit secondary (Amersham Pharmacia) was used at 1:5000. For chemiluminescence, the ECL plus kit (Amersham Pharmacia) was used for detection.
as §1
(§5) After Cytotoxic agent treatments, cells were harvested. The level of H2B S14 phosphorylation is determined by Western blots using ePhos (S14) H2B.

HL-60 cells [3] = assay: Caspase 3 inhibitor pre-incubation before VP16, Western analysis of Mst1 cleavage and H2B Ser14 phosphorylation; assay type: cell-based, human; settings: then VP16 for 4 hours
Experimental: as §4
If H2B (Ser14) phosphorylation is dependent on the cleavage of Mst1, this histone modification should be sensitive to documented caspase 3 inhibitors such as the DEVD peptide. To test this prediction, HL-60 cells were pre-incubated with varying amounts of z-DEVD-fmk (Trevigen) before subsequent treatment with VP16 for 4 hours. Cell extracts were then harvested for western analysis. […] Accordingly, H2B is likely phosphorylated in vivo at Ser14 by the caspase 3-generated form of Mst1.

HepG2 = assay: Western blot for H2B S14 phosphorylation after cytotoxic agent treatment; assay type: cell-based
Experimental: as §2
as §3, with “5.4% of Percholic acid was added to the supernatant and the precipitated histones were resuspended in water.” left out
as §5

[4] = target: histone H2B (substrate of the in vitro kinase reactions)

COc1cc([C@@H]2c3cc4c(cc3[C@@H](O[C@@H]3O[C@@H]5CO[C@@H](C)O[C@H]5[C@H](O)[C@H]3O)[C@H]3COC(=O)[C@H]23)OCO4)cc(OC)c1O [Etoposide (VP16), Etoposide]
Time post treatment of appearance of DNA ladder (apoptotic DNA fragmentation) (HL-60 cells [1]): 4 h
Time of H2A.X phosphorylation after treatment (HL-60 cells [2]; Western blot): one
Time post treatment at which H2B phosphorylation signal is strongly enhanced (HL-60 cells [2]; Western blot with S14P antibody): around 4 hours
Levels of H2B S14 Phons Induction (HL-60 cells [2]; Western blot): High

COc1ccc(C[C@H]2NC[C@H](O)[C@H]2OC(C)=O)cc1 [Anisomycin]
Levels of H2B S14 Phons Induction (HL-60 cells [2]; Western blot): High

z-DEVD-fmk
H2B phosphorylation (HL-60 cells [3]; 20 mM inhibitor): only a modest decrease
Proportion of truncated Mst1 over full length Mst1 (HL-60 cells [3]; 20 mM inhibitor): only a modest decrease
H2B Ser14 phosphorylation (HL-60 cells [3]; 200 mM inhibitor): inhibited
Mst1 cleavage (HL-60 cells [3]; 200 mM inhibitor): inhibited

COS(C)(=O)=O [MMS]
Levels of H2B S14 Phons Induction (HepG2): Medium

B1: myc-tagged full length Mst1 (protein)
chain: METVQLRNPPRRQLKKLDEDSLTKQPEEVFDVLEKLGEGSYGSVYKAIHKETGQIVAIKQVPVESDLQEIIKEISIMQQCDSPHVVKYYGSYFKNTDLWIVMEYCGAGSVSDIIRLRNKTLTEDEIATILQSTLKGLEYLHFMRKIHRDIKAGNILLNTEGHAKLADFGVAGQLTDTMAKRNTVIGTPFWMAPEVIQEIGYNCVADIWSLGITAIEMAEGKPPYADIHPMRAIFMIPTNPPPTFRKPELWSDNFTDFVKQCLVKSPEQRATATQLLQHPFVRSAKGVSILRDLINEAMDVKLKRQESQQREVDQDDEENSEEDEMDSGTMVRAVGDEMGTVRVASTMTDGANTMIEHDDTLPSQLGTMVINAEDEEEEGTMKRRDETMQPAKPSFLEYFEQKEKENQINSFGKSVPGPLKNSSDWKIPQDGDYEFLKSWTVEDLQKRLLALDPMMEQEIEEIRQKYQSKRQPILDAIEAKKRRQQNF
IP kinase reaction with non-radioactive ATP, Western blot with the S14P antibody [4]: both Mst1 FL and DC phosphorylate H2B at Ser14 as detected by the S14P antibody
in vitro kinase assay on myc immunoprecipitates, with g(32P)-ATP or cold ATP [4]: Strong phosphorylation of H2B was detected with both full length and DC Mst1

B2: myc-tagged kinase dead Mst1 (protein)
chain: METVQLRNPPRRQLKKLDEDSLTKQPEEVFDVLEKLGEGSYGSVYKAIHKETGQIVAIRQVPVESDLQEIIKEISIMQQCDSPHVVKYYGSYFKNTDLWIVMEYCGAGSVSDIIRLRNKTLTEDEIATILQSTLKGLEYLHFMRKIHRDIKAGNILLNTEGHAKLADFGVAGQLTDTMAKRNTVIGTPFWMAPEVIQEIGYNCVADIWSLGITAIEMAEGKPPYADIHPMRAIFMIPTNPPPTFRKPELWSDNFTDFVKQCLVKSPEQRATATQLLQHPFVRSAKGVSILRDLINEAMDVKLKRQESQQREVDQDDEENSEEDEMDSGTMVRAVGDEMGTVRVASTMTDGANTMIEHDDTLPSQLGTMVINAEDEEEEGTMKRRDETMQPAKPSFLEYFEQKEKENQINSFGKSVPGPLKNSSDWKIPQDGDYEFLKSWTVEDLQKRLLALDPMMEQEIEEIRQKYQSKRQPILDAIEAKKRRQQNF
in vitro kinase assay on myc immunoprecipitates, with g(32P)-ATP or cold ATP [4]: the kinase dead form Mst1 (which contains a single point mutation) did not phosphorylate H2B

B3: myc-tagged C-terminal truncated form of Mst1 (protein)
chain: METVQLRNPPRRQLKKLDEDSLTKQPEEVFDVLEKLGEGSYGSVYKAIHKETGQIVAIKQVPVESDLQEIIKEISIMQQCDSPHVVKYYGSYFKNTDLWIVMEYCGAGSVSDIIRLRNKTLTEDEIATILQSTLKGLEYLHFMRKIHRDIKAGNILLNTEGHAKLADFGVAGQLTDTMAKRNTVIGTPFWMAPEVIQEIGYNCVADIWSLGITAIEMAEGKPPYADIHPMRAIFMIPTNPPPTFRKPELWSDNFTDFVKQCLVKSPEQRATATQLLQHPFVRSAKGVSILRDLINEAMDVKLKRQESQQREVDQDDEENSEEDEMD
IP kinase reaction with non-radioactive ATP, Western blot with the S14P antibody [4]: both Mst1 FL and DC phosphorylate H2B at Ser14 as detected by the S14P antibody
in vitro kinase assay on myc immunoprecipitates, with g(32P)-ATP or cold ATP [4]: Strong phosphorylation of H2B was detected with both full length and DC Mst1
